Biological target: Aβ42 (Homo sapiens, UniProt P05067)
Experiment: Th-T (thioflavin-T) assay of Aβ42 aggregation
Type: biochemical
Conditions: for Th-T assay plate reading, mean of three wells (Supplementary Fig. 47): source data, Ab alone and No Ab as controls

Aβ42, sequence (P05067 672-713): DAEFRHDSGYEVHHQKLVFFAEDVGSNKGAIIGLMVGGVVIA

C=C1CCC2C(C)(CCC=C(C)C)C(O)CCC2(C)C1Cc1c(OC)oc(C)c(C)c1=O (stereo not drawn) [Compound 15, viridoxin A hydrolysate]
Th-T fluorescence, mean of three wells (Aβ42 aggregation time course, reading M117): 3.35 | Th-T fluorescence, mean of three wells (Aβ42 aggregation time course, reading M118): 3.314 | Th-T fluorescence, mean of three wells (Aβ42 aggregation time course, reading M119): 3.3216 | Th-T fluorescence, mean of three wells (Aβ42 aggregation time course, reading M120): 3.354 | Th-T fluorescence, mean of three wells (Aβ42 aggregation time course, reading M121): 3.335 | Th-T fluorescence, mean of three wells (Aβ42 aggregation time course, reading M122): 3.364 | Th-T fluorescence, mean of three wells (Aβ42 aggregation time course, reading M123): 3.352 | Th-T fluorescence, mean of three wells (Aβ42 aggregation time course, reading M124): 3.339 | Th-T fluorescence, mean of three wells (Aβ42 aggregation time course, reading M125): 3.327 | Th-T fluorescence, mean of three wells (Aβ42 aggregation time course, reading M126): 3.362 | Th-T fluorescence, mean of three wells (Aβ42 aggregation time course, reading M127): 3.317 | Th-T fluorescence, mean of three wells (Aβ42 aggregation time course, reading M128): 3.323 | Th-T fluorescence, mean of three wells (Aβ42 aggregation time course, reading M129): 3.297 | Th-T fluorescence, mean of three wells (Aβ42 aggregation time course, reading M130): 3.34 | Th-T fluorescence, mean of three wells (Aβ42 aggregation time course, reading M131): 3.327 | Th-T fluorescence, mean of three wells (Aβ42 aggregation time course, reading M132): 3.341 | Th-T fluorescence, mean of three wells (Aβ42 aggregation time course, reading M133): 3.324 | Th-T fluorescence, mean of three wells (Aβ42 aggregation time course, reading M134): 3.304 | Th-T fluorescence, mean of three wells (Aβ42 aggregation time course, reading M135): 3.315 | Th-T fluorescence, mean of three wells (Aβ42 aggregation time course, reading M136): 3.347 | Th-T fluorescence, mean of three wells (Supplementary Fig. 47, reading M137): 3.349 | Th-T fluorescence, mean of three wells (Supplementary Fig. 47, reading M138): 3.365 | Th-T fluorescence, mean of three wells (Supplementary Fig. 47, reading M139): 3.354 | Th-T fluorescence, mean of three wells (Supplementary Fig. 47, reading M140): 3.356 | Th-T fluorescence, mean of three wells (Supplementary Fig. 47, reading M141): 3.3427 | Th-T fluorescence, mean of three wells (Supplementary Fig. 47, reading M142): 3.34 | Th-T fluorescence, mean of three wells (Supplementary Fig. 47, reading M143): 3.336 | Th-T fluorescence, mean of three wells (Supplementary Fig. 47, reading M144): 3.346 | Th-T fluorescence, mean of three wells (Supplementary Fig. 47, reading M145): 3.328 | Th-T assay plate reading, mean of three wells (Supplementary Fig. 47) (measurement M1): 0.2276 | Th-T assay plate reading, mean of three wells (Supplementary Fig. 47) (measurement M2): 0.2029 | Th-T assay plate reading, mean of three wells (Supplementary Fig. 47) (measurement M3): 0.2068 | Th-T assay plate reading, mean of three wells (Supplementary Fig. 47) (measurement M4): 0.2103 | Th-T assay plate reading, mean of three wells (Supplementary Fig. 47) (measurement M5): 0.2149 | Th-T assay plate reading, mean of three wells (Supplementary Fig. 47) (measurement M6): 0.2264 | Th-T assay plate reading, mean of three wells (Supplementary Fig. 47) (measurement M7): 0.2421 | Th-T assay plate reading, mean of three wells (Supplementary Fig. 47) (measurement M8): 0.3484 | Th-T assay plate reading, mean of three wells (Supplementary Fig. 47) (measurement M9): 0.4623 | Th-T assay plate reading, mean of three wells (Supplementary Fig. 47) (measurement M10): 0.8904 | Th-T assay plate reading, mean of three wells (Supplementary Fig. 47) (measurement M11): 1.43 | Th-T assay plate reading, mean of three wells (Supplementary Fig. 47) (measurement M12): 1.748 | Th-T assay plate reading, mean of three wells (Supplementary Fig. 47) (measurement M13): 1.906 | Th-T assay plate reading, mean of three wells (Supplementary Fig. 47) (measurement M14): 1.9845 | Th-T assay plate reading, mean of three wells (Supplementary Fig. 47) (measurement M15): 1.9935 | Th-T assay plate reading, mean of three wells (Supplementary Fig. 47) (measurement M16): 2.026 | Th-T fluorescence, mean of three wells (reading M17, Supplementary Fig. 47 source data): 2.072 | Th-T fluorescence, mean of three wells (time-course reading M97, Supplementary Fig. 47 source data): 3.281 | Th-T fluorescence, mean of three wells (time-course reading M98, Supplementary Fig. 47 source data): 3.314 | Th-T fluorescence, mean of three wells (time-course reading M99, Supplementary Fig. 47 source data): 3.322 | Th-T fluorescence, mean of three wells (time-course reading M100, Supplementary Fig. 47 source data): 3.3481 | Th-T fluorescence, mean of three wells (time-course reading M101, Supplementary Fig. 47 source data): 3.295 | Th-T fluorescence, mean of three wells (time-course reading M102, Supplementary Fig. 47 source data): 3.298 | Th-T fluorescence, mean of three wells (time-course reading M103, Supplementary Fig. 47 source data): 3.312 | Th-T fluorescence, mean of three wells (time-course reading M104, Supplementary Fig. 47 source data): 3.321 | Th-T fluorescence, mean of three wells (time-course reading M105, Supplementary Fig. 47 source data): 3.301 | Th-T fluorescence, mean of three wells (time-course reading M106, Supplementary Fig. 47 source data): 3.313 | Th-T fluorescence, mean of three wells (time-course reading M107, Supplementary Fig. 47 source data): 3.319 | Th-T fluorescence, mean of three wells (time-course reading M108, Supplementary Fig. 47 source data): 3.3191 | Th-T fluorescence, mean of three wells (time-course reading M109, Supplementary Fig. 47 source data): 3.3293 | Th-T fluorescence, mean of three wells (time-course reading M110, Supplementary Fig. 47 source data): 3.309 | Th-T fluorescence, mean of three wells (time-course reading M111, Supplementary Fig. 47 source data): 3.3187 | Th-T fluorescence, mean of three wells (time-course reading M112, Supplementary Fig. 47 source data): 3.343 | Th-T fluorescence, mean of three wells (time-course reading M113, Supplementary Fig. 47 source data): 3.364 | Th-T fluorescence, mean of three wells (time-course reading M114, Supplementary Fig. 47 source data): 3.378 | Th-T fluorescence, mean of three wells (time-course reading M115, Supplementary Fig. 47 source data): 3.333 | Th-T fluorescence, mean of three wells (time-course reading M116, Supplementary Fig. 47 source data): 3.348
